Test system: gap junction channels
Assay: Cell-cell dye transfer after local uncaging in C. elegans embryos (control experiments)
Type: in vivo
Settings: α-GA 25 μM, 4-cell embryo, eggshell thinned with bleach and chitinase, ABp uncaged
From the text: To study the pattern of cell-cell coupling during early development, embryos were collected from injected worms and subjected to differential interference contrast (“DIC”) imaging. Three to four hours after injection, early embryos were collected from injected worms by cutting the worms near the uterus. Labeled embryos were transferred onto a 2% agar pad, covered with a coverslip, and mounted on an inverted fluorescence microscope (Axiovert 200M, Carl Zeiss, Peabody, Mass.). During uncaging and imaging, motorized filter wheels (Ludl Electronics Products, Hawthorne, N.Y.) were employed to select excitation and emission wavelengths by passing light from a Xeon lamp (75 W) through bandpass filters (Chroma Technology, Rockingham, Vt.). A neutral density filter was also added to the light path to reduce the excitation light intensity by about 70%. The typical UV uncaging duration is about 2 seconds. Bandpass filters were chosen for UV uncaging (360±20 nm), coumarin imaging (excitation 425±5 nm, emission 460±15 nm), GFP imaging (excitation 488±7.5 nm, emission 530±20 nm), and rhodamine imaging (excitation 560±20 nm, emission 615±30 nm). A customized multiple path dichroic mirror was used for the UV uncaging and 3-color imaging. Epifluorescence was collected with a cooled CCD camera (ORCA-ER, Hamamatsu, Bridgewater, N.J.) under the control of OpenLab software (Improvision, Waltham, Mass.). […]

CC1(C)[C@@H](O)CC[C@]2(C)[C@H]3C(=O)C=C4[C@H]5C[C@@](C)(C(=O)O)CC[C@]5(C)CC[C@@]4(C)[C@]3(C)CC[C@@H]12 [α-GA, 18α-glycyrrhetinic acid]
cell-cell dye transfer after uncaging dextran-CANPE-HCC in presence of blocker: dye transfer was not observed
